For one experiment, the target named is T1, MAPKAPK2 (Homo sapiens, UniProt P49137).
T1 construct: purchased Perkin Elmer (ProfilerPro assay kit 1)
Briefly: 26-kinase panel mobility shift assay, single concentration. The experiment is classed as biochemical. The conditions noted are these: read-out: % Inhibition MAPKAPK2.

A further experiment has as its target T2, GSK3b (Homo sapiens, UniProt P49841).
T2 construct: purchased Perkin Elmer (ProfilerPro assay kit 1)
The description is as above. The experiment is classed as biochemical. The following applies: read-out: % Inhibition GSK3.

The target in another experiment is T3, MPS1 (Homo sapiens, UniProt P33981).
T3 sequence (P33981 1-857): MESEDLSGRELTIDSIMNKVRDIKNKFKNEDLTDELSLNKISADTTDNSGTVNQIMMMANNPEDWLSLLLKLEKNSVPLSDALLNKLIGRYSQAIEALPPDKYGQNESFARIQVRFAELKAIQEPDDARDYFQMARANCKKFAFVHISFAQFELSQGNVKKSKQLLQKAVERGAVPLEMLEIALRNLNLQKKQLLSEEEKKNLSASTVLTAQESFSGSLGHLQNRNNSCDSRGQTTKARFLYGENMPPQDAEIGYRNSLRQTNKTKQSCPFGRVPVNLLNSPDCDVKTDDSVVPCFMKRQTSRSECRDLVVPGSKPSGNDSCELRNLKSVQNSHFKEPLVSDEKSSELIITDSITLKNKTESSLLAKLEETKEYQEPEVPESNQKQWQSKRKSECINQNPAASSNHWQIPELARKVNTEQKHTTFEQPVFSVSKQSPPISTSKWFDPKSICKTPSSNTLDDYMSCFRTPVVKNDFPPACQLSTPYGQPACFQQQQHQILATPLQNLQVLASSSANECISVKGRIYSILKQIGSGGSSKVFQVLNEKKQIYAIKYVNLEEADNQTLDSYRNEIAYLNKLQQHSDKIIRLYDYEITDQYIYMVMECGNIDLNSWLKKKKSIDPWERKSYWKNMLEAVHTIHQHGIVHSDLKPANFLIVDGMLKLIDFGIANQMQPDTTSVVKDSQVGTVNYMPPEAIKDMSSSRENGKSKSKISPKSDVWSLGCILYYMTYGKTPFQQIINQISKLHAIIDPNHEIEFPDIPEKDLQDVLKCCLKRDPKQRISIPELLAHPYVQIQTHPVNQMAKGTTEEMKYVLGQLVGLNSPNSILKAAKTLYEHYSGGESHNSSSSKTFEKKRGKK
Briefly: biochemical. The following applies: read-out: % Inhibition MPS1.

The next experiment deals with T4, PKA (Homo sapiens, UniProt P17612).
T4 construct: purchased Perkin Elmer (ProfilerPro assay kit 1)
Briefly: 26-kinase panel mobility shift assay, single concentration. It is filed as biochemical. The conditions noted are these: read-out: % Inhibition PKA.

The next experiment has as its target T5, CK1d (Homo sapiens, UniProt P48730).
T5 construct: purchased Perkin Elmer (ProfilerPro assay kit 1)
The description is as above. The experiment is classed as biochemical. The conditions noted are these: read-out: % Inhibition CK1d.

Another experiment has as its target T6, Erk2 (Homo sapiens, UniProt P28482).
T6 construct: purchased Perkin Elmer (ProfilerPro assay kit 1)
The description is as above. The following applies: read-out: % Inhibition Erk2. It is filed as biochemical.

For a further experiment, the target named is T7, MSK1 (Homo sapiens, UniProt O75582).
T7 construct: purchased Perkin Elmer (ProfilerPro assay kit 1)
Described as above. The conditions noted are these: read-out: % Inhibition MSK1. It is filed as biochemical.

The target of the next experiment is T8, INSR (Homo sapiens, UniProt P06213).
T8 construct: purchased Perkin Elmer (ProfilerPro assay kit 1)
The experiment is described as above. The experiment is classed as biochemical. The following applies: read-out: % Inhibition INSR.

The target in another experiment is T9, Erk1 (Homo sapiens, UniProt P27361).
T9 construct: purchased Perkin Elmer (ProfilerPro assay kit 1)
Described as above. It is filed as biochemical. The conditions noted are these: read-out: % Inhibition Erk1.

The next experiment addresses T10, SRC (Homo sapiens, UniProt P12931).
T10 construct: purchased Perkin Elmer (ProfilerPro assay kit 1)
Described as above. The experiment is classed as biochemical. The conditions noted are these: read-out: % Inhibition SRC.

The next experiment deals with T11, PRAK (Homo sapiens, UniProt Q8IW41).
T11 construct: purchased Perkin Elmer (ProfilerPro assay kit 1)
T11 sequence (Q8IW41 1-473): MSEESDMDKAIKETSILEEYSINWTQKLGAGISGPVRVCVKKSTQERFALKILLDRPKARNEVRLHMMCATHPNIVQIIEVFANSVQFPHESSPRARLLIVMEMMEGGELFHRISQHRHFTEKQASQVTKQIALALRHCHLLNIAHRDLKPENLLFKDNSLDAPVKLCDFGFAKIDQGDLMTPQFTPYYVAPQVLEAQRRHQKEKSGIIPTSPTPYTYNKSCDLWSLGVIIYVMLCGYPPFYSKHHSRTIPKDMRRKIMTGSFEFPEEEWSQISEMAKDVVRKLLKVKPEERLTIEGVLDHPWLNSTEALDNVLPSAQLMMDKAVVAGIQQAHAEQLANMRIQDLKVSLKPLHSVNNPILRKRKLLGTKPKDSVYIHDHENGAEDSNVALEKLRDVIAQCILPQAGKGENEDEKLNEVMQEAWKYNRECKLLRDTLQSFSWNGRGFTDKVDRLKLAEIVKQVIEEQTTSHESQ
The experiment is described as above. It is filed as biochemical. The conditions noted are these: read-out: % Inhibition PRAK.

For another experiment, the target named is T12, MET (Homo sapiens, UniProt P08581).
T12 construct: purchased Perkin Elmer (ProfilerPro assay kit 1)
Described as above. It is filed as biochemical. The conditions noted are these: read-out: % Inhibition MET.

For another experiment, the target named is T13, CHK1 (Homo sapiens, UniProt O14757).
T13 construct: purchased Perkin Elmer ProfilerPro assay kit 1
T13 sequence (O14757 1-476): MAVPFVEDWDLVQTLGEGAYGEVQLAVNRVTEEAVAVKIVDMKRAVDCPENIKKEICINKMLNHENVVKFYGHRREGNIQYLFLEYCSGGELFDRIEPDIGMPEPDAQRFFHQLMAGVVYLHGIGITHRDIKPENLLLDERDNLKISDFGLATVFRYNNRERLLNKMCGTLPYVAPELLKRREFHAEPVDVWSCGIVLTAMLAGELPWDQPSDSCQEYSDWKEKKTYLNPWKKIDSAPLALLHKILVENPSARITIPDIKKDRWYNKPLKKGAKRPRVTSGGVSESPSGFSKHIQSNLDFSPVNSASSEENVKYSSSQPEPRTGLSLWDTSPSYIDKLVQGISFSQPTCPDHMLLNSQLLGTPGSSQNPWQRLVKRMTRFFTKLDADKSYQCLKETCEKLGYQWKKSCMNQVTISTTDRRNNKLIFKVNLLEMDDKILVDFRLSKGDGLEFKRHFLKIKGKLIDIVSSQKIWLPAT
The description is as above. It is filed as biochemical. The following applies: read-out: % Inhibition CHK1.

For a further experiment, the target named is T14, LCK (Homo sapiens, UniProt P06239).
T14 construct: purchased Perkin Elmer (ProfilerPro assay kit 1)
The experiment is described as above. It is filed as biochemical. The conditions noted are these: read-out: % Inhibition LCK.

In a further experiment the target is T15, CHK2 (Homo sapiens, UniProt O96017).
T15 construct: purchased Perkin Elmer (ProfilerPro assay kit 1)
Described as above. The conditions noted are these: read-out: % Inhibition CHK2. It is filed as biochemical.

Another experiment has as its target T16, p38 (Homo sapiens, UniProt Q16539).
T16 construct: purchased Perkin Elmer (ProfilerPro assay kit 1)
Described as above. It is filed as biochemical. The following applies: read-out: % Inhibition p38.

Another experiment has as its target T17, ABL (Homo sapiens, UniProt P00519).
T17 construct: purchased Perkin Elmer ProfilerPro assay kit 1
Described as above. The experiment is classed as biochemical. The conditions noted are these: read-out: % Inhibition ABL.

Each structure is given as a SMILES string. Like-named read-outs stand apart in the source and are kept apart here.

T2 sequence (P49841 whole entry): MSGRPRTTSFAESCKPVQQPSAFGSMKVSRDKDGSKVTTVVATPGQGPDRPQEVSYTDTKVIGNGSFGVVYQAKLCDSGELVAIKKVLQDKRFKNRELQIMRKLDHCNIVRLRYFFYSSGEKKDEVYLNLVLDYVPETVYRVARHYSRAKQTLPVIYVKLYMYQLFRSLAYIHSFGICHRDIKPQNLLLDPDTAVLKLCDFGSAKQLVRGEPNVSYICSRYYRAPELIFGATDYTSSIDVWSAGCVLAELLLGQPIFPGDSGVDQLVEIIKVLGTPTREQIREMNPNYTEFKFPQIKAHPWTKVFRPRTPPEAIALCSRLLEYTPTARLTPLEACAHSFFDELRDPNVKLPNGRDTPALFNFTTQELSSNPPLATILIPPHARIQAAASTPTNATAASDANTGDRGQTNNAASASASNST
T7 sequence (O75582 whole entry): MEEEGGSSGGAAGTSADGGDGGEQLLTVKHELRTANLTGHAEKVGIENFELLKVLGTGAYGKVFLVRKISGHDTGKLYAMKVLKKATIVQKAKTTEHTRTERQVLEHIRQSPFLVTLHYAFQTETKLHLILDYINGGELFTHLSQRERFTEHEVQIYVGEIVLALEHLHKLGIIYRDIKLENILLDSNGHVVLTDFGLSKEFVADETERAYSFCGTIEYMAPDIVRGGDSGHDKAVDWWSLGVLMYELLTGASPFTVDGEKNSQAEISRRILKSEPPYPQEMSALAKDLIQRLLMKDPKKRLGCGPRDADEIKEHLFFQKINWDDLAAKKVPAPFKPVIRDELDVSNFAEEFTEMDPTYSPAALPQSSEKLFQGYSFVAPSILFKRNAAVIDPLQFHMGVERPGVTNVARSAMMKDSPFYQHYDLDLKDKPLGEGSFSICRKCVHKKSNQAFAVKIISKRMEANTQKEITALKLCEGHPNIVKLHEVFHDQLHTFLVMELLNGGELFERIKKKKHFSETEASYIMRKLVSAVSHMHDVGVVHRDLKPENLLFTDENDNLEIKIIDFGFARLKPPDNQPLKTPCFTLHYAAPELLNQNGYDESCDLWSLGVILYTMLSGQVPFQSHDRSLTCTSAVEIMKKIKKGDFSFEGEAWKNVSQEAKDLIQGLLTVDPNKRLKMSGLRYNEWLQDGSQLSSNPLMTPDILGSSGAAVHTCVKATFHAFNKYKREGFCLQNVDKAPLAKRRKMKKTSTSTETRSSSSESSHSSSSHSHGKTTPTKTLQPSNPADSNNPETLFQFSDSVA
T1 sequence (P49137 whole entry): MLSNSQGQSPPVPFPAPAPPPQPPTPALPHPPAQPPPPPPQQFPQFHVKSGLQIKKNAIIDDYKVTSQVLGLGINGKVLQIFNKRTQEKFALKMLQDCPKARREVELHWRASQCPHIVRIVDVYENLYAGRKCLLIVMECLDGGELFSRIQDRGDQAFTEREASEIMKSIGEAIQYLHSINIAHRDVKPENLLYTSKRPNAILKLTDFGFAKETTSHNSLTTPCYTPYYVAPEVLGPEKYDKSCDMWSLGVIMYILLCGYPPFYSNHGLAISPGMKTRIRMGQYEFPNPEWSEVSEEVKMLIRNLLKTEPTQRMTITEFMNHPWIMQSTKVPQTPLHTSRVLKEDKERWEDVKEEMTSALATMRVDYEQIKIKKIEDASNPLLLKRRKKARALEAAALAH
T5 sequence (P48730 whole entry): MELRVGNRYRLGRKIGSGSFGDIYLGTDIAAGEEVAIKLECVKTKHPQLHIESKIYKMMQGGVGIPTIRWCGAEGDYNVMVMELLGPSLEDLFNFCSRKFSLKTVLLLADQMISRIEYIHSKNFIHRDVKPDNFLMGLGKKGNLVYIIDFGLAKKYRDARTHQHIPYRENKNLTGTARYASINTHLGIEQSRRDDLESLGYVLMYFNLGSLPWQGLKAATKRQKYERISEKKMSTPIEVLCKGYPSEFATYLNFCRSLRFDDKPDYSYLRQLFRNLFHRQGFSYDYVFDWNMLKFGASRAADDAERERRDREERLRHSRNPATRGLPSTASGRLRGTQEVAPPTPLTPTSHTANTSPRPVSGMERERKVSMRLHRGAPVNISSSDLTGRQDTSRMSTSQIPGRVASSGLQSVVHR
T14 sequence (P06239 whole entry): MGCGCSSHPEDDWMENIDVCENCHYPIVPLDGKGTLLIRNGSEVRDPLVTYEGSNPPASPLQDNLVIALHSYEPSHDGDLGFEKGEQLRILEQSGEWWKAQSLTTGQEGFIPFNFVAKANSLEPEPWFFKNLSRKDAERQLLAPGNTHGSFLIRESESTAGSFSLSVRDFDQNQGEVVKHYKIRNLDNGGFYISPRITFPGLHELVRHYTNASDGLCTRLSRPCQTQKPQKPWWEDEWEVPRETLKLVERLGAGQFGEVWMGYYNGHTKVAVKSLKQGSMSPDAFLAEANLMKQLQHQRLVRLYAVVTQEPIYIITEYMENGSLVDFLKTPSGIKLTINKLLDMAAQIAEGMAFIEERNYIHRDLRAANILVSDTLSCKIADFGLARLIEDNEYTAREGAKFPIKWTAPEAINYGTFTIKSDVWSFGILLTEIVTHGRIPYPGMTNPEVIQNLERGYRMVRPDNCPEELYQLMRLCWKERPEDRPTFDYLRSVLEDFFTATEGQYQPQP
T16 sequence (Q16539 whole entry): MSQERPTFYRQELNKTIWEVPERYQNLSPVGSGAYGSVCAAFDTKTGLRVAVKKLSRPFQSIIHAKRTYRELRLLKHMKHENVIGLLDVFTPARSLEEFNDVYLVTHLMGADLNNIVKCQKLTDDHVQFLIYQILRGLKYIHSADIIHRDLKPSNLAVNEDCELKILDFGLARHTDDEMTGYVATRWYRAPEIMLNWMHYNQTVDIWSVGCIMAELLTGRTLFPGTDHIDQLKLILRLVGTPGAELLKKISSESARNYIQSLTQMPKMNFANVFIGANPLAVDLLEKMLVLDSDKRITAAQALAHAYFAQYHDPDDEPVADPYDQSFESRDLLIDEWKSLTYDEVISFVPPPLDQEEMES
T15 sequence (O96017 whole entry): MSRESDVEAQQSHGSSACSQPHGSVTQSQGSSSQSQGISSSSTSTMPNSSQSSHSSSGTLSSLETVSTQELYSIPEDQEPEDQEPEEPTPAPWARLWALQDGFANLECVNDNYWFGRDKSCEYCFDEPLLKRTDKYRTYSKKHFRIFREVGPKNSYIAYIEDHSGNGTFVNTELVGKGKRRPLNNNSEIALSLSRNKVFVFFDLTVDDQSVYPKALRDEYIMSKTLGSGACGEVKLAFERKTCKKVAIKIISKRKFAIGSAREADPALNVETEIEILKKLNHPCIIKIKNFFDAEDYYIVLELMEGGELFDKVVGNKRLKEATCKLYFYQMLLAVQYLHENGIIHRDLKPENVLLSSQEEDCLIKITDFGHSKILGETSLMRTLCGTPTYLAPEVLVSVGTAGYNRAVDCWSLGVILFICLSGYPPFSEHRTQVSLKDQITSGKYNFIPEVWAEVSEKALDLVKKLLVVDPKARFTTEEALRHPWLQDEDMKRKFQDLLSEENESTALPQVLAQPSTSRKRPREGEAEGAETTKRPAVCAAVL
T10 sequence (P12931 whole entry): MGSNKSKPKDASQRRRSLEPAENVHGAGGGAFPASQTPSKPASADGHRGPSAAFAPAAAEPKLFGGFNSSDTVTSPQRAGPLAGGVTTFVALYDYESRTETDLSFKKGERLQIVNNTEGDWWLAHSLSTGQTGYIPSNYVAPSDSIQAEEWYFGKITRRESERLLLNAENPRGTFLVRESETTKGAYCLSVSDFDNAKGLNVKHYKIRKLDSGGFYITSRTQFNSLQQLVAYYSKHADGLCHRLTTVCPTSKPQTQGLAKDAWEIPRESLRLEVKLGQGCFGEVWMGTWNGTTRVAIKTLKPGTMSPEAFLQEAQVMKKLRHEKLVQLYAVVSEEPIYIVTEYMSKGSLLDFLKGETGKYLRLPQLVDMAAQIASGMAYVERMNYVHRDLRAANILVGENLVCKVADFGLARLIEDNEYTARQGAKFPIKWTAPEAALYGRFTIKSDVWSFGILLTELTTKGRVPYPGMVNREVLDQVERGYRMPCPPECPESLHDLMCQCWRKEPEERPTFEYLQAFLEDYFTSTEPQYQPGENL
T6 sequence (P28482 whole entry): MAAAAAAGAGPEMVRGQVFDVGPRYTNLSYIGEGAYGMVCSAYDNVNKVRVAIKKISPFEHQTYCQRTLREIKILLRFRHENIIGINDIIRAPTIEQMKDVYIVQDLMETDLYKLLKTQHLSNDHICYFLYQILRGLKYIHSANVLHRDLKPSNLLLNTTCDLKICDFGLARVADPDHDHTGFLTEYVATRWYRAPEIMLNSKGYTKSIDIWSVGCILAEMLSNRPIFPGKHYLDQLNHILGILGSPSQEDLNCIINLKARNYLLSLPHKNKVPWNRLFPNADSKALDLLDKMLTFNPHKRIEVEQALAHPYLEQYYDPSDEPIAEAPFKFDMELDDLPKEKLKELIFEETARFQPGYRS
T9 sequence (P27361 whole entry): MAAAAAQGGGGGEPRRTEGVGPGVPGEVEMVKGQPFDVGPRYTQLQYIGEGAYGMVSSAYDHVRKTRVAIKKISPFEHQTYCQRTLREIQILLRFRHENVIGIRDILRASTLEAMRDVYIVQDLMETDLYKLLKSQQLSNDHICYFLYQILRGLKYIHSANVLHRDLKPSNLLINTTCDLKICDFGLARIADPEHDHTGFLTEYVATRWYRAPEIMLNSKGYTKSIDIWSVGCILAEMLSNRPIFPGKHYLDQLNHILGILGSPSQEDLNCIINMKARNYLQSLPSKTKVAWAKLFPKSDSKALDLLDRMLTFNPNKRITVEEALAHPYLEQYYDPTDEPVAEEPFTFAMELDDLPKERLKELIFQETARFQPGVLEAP
Method for ABL: Mobility Shift Assay Protocol
(§1) Screening of 26 kinases using a mobility shift assay
(§2) A mobility shift assay to determine kinase inhibition was carried out using a
(§3) modified version of the ProfilerPro assay kit 1 (Perkin Elmer, Coventry, UK)
(§4) including MPS1 and Aurora B. Each kit contained an enzyme plate, a substrate
(§5) plate, reconstitution buffer, 1 M DTT, protease inhibitor cocktail and termination
(§6) buffer. Test compounds were added as a solution in DMSO.
(§7) peptide phosphorylation assay was carried out as per the manufacturer’s
(§8) instructions. The electrophoretic separation and analysis of the phosphorylated
(§9) and non-phosphorylated peptides was carried out on a 4-sipper chip using a
(§10) LabChip EZReader II (Perkin Elmer). Results were expressed as % inhibition of
(§11) peptide phosphorylation relative to control wells for 0 % (no test compound) and
(§12) 100 % (no ATP) inhibition. The percentage inhibition was calculated using the
(§13) % Inhibition = [1 - (% Conversion Sample / % Conversion 0% Inhibition Control)] x 100
Method for CHK1: as §2, §3, §4, §5, §6, §7, §8, §9, §10, §11, §12, §13
Method for CHK2: as §2, §3, §4, §5, §6, §7, §8, §9, §10, §11, §12, §13
Method for CK1d: as §2, §3, §4, §5, §6, §7, §8, §9, §10, §11, §12, §13
Method for Erk1: as §2, §3, §4, §5, §6, §7, §8, §9, §10, §11, §12, §13
Method for Erk2: as §2, §3, §4, §5, §6, §7, §8, §9, §10, §11, §12, §13
Method for GSK3b: as §2, §3, §4, §5, §6, §7, §8, §9, §10, §11, §12, §13
Method for INSR: (§14) In order to test the biochemical activity of our fragment library, a panel of 26 structurally diverse protein kinases was used.
as §1, §2, §3, §4, §5, §6, §7, §8, §9, §10, §11, §12, §13
Method for LCK: as §2, §3, §4, §5, §6, §7, §8, §9, §10, §11, §12, §13
Method for MAPKAPK2: as §2, §3, §4, §5, §6, §7, §8, §9, §10, §11, §12, §13
Method for MET: as §14
Mobility Shift Assay Protocol
as §1, §2, §3, §4, §5, §6
final concentration. […] The
as §7, §8, §9, §10, §11, §12, §13
Method for MPS1: as §14, §1, §2, §3, §4, §5, §6, §7, §8, §9, §10, §11, §12, §13
Method for MSK1: as §14
Mobility Shift Assay Protocol
as §1, §2, §3, §4, §5, §6
final concentration. […] The
as §7, §8, §9, §10, §11, §12, §13
Method for PRAK: as §2, §3, §4, §5, §6
final concentration. […] The
as §7, §8, §9, §10, §11, §12, §13
Method for SRC: as §14, §1, §2, §3, §4, §5, §6, §7, §8, §9, §10, §11, §12, §13
Method for p38: as §14
Mobility Shift Assay Protocol
as §1, §2, §3, §4, §5, §6
final concentration. […] The
as §7, §8, §9, §10, §11, §12, §13

In general, inhibition refers to the share of the control response that was lost under treatment. Consider `Nc1ccc[nH]c1=O` [Compound 1, 3-aminopyridin-2-one], for which the inhibition at 100 µM at MAPKAPK2 was found to be 25%; on GSK3b it was 17%; at MPS1 it was 0%; on PKA, 0%; on CK1d, 45%; on Erk2, 3%. For the same molecule, the inhibition at 100 µM turned out to be 26% on MSK1; 2% at INSR; 9% on Erk1; 31% at SRC; 19% at PRAK; 33% on MET. For the same molecule, the inhibition at 100 µM came out at 37% on CHK1; 4% at LCK; 49% on CHK2; 9% at p38; 5% on ABL.

Regarding `Cn1cc(-c2c[nH]c(=O)c(N)c2)cn1` [Compound 2, 3-Amino-5-(1-methyl-1H-pyrazol-4-yl)pyridin-2(1H)-one], the inhibition at 100 µM on MAPKAPK2 was 97%; on GSK3b it was 68%; on MPS1 (compound at 100 µM) it was 41%; at PKA it was 66%; on CK1d, 72%; at Erk2, 68%. Besides, the inhibition at 100 µM at MSK1 was 95%; on INSR, 25%; at Erk1, 62%; at SRC, 86%; on PRAK it was 99%; on MET, 81%. For the same molecule, the inhibition at 100 µM at CHK1 was 77%; at LCK, 11%; on CHK2, 99%; at p38 it was 39%; on ABL, 58%.

Consider `COc1ncc(-c2ccncc2)cc1N` [Compound 5, 6-Methoxy-3,4′-bipyridin-5-amine], for which the inhibition at 100 µM was determined as 19% at MAPKAPK2; 26% on GSK3b; 41% on MPS1 (compound at 100 µM); 52% at PKA; 38% on CK1d; 12% on Erk2. Also, the inhibition at 100 µM was 61% on MSK1; 6% at INSR; 20% at Erk1; 8% at SRC; 1% at PRAK; 18% at MET. In addition, the inhibition at 100 µM on CHK1 was 1%; on LCK, 7%; on CHK2 it was 36%; at p38, 0%; at ABL it was 26%.

On to `Nc1cc(-c2ccnc3ccccc23)c[nH]c1=O` [Compound 6], for which the inhibition at 100 µM at MAPKAPK2 is 32%; at GSK3b, 20%; at MPS1 (compound at 100 µM), 69%; on PKA, 48%; at CK1d, 37%; on Erk2, 15%. Further, the inhibition at 100 µM on MSK1 amounted to 22%; on INSR it was 13%; at Erk1, 22%; on SRC, 24%; on PRAK, 15%; on MET, 19%. Further, the inhibition at 100 µM at CHK1 was found to be 26%; at LCK, 40%; on CHK2, 57%; at p38, 0%; on ABL, 66%.

With `CNc1nccc(-c2c[nH]c(=O)c(N)c2)n1` [Compound 7], the inhibition at 100 µM came out at 79% on MAPKAPK2; 89% at GSK3b; 71% at MPS1 (compound at 100 µM); 81% at PKA; 79% on CK1d; 53% at Erk2. In addition, the inhibition at 100 µM at MSK1 was determined as 94%; at INSR it was 80%; at Erk1 it was 52%; at SRC it was 89%; at PRAK, 88%; at MET, 76%. Besides, the inhibition at 100 µM at CHK1 was found to be 79%; on LCK, 55%; on CHK2 it was 98%; at p38, 25%; at ABL it was 67%.

Regarding `Nc1cc(-c2ccnc(NC3CC3)n2)c[nH]c1=O` [Compound 8], the inhibition at 100 µM at MAPKAPK2 worked out at 28%; on GSK3b, 87%; on MPS1 (compound at 100 µM) it was 87%; on PKA it was 8%; on CK1d it was 63%; on Erk2, 45%. Also, the inhibition at 100 µM at MSK1 is 27%; on INSR, 27%; on Erk1 it was 46%; on SRC it was 46%; at PRAK, 24%; at MET, 26%. For the same molecule, the inhibition at 100 µM worked out at 26% at CHK1; 38% on LCK; 61% at CHK2; 12% on p38; 43% on ABL.

For the origin of these results see PMC6008489 (Bioorganic & Medicinal Chemistry, 2018).
